14 compounds from PubChem BioAssay (NCI) can be followed below.

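How tested: cells in 96-well plates exposed to compound for 48 hours at five concentrations. GI50 = concentration required for 50% inhibition of growth. TGI: total growth inhibition.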

Some test systems named below: UACC-257 melanoma; HCT-116 colon; K-562 leukemia; HOP-92 NSCLC; HCC-2998 colon; TK-10 renal; HCT-15 colon; COLO 205 colon; OVCAR-8 ovarian; SNB-75 CNS.
Experiment in all cases: growth of human tumour cells (NCI), 48 h

With `O=c1c(Oc2ccc(F)cc2F)cc2cnc(NC3CCOCC3)nc2n1C1CCS(=O)(=O)CC1`, the GI50 was > 25000 nM in the test with UACC-257 melanoma; > 25000 nM in the test with HCT-116 colon; > 25 µM in the test with K-562 leukemia; > 25000 nM with HOP-92 NSCLC; > 25 µM in the test with HCC-2998 colon; > 25000 nM with TK-10 renal. Besides, the GI50 in the test with HCT-15 colon is > 25 µM; in the test with COLO 205 colon it was > 25 µM; with OVCAR-8 ovarian, > 25 µM; with SNB-75 CNS, > 25000 nM. The TGI with UACC-257 melanoma, in the test on HCT-116 colon, with K-562 leukemia, with HOP-92 NSCLC, in the test on HCC-2998 colon and with TK-10 renal was > 25 µM throughout. In addition, the TGI in the test on HCT-15 colon, in the test with COLO 205 colon, in the test on OVCAR-8 ovarian and with SNB-75 CNS was > 25 µM in each case.
As to `CC(=O)C(=[N+]=[N-])C(=O)NCC#N`, the TGI with UACC-257 melanoma, in the test with HCT-116 colon, in the test on K-562 leukemia, in the test with HOP-92 NSCLC, with HCC-2998 colon and in the test on TK-10 renal was > 10 µM each time. Also, the TGI in the test on HCT-15 colon, in the test on COLO 205 colon, in the test on OVCAR-8 ovarian and with SNB-75 CNS was > 10 µM throughout.
For `COC(=O)C1C(C(=O)OC)C2(OC)c3ccccc3-c3ccccc3C12` (stereo not given), the TGI in the test on UACC-257 melanoma was > 100 µM; in the test on HCT-116 colon, > 100 µM; with K-562 leukemia it was 76.9 µM; with HOP-92 NSCLC, > 100 µM; in the test with HCC-2998 colon, > 100 µM; in the test with TK-10 renal, > 100 µM. Besides, the TGI with HCT-15 colon is > 100 µM; in the test on COLO 205 colon it was 31.3 µM; with OVCAR-8 ovarian it was > 100 µM; in the test with SNB-75 CNS, > 100 µM.
`CC(=O)c1c(C)[nH]c(-c2nc3ccc(N4CCN(C)CC4)cc3[nH]2)c1-c1ccc(OCC2CCOCC2)cc1`: the GI50 with UACC-257 melanoma is 789 nM; with HCT-116 colon, 714 nM; in the test with K-562 leukemia, 0.37 µM; in the test with HOP-92 NSCLC, 110 nM; in the test on HCC-2998 colon, 0.766 µM; in the test on TK-10 renal, 306 nM. The GI50 in the test on HCT-15 colon is 0.456 µM; in the test on COLO 205 colon it was 0.334 µM; in the test with OVCAR-8 ovarian it was 1.5 µM; with SNB-75 CNS, 36.5 nM. Also, the TGI with UACC-257 melanoma amounted to 4.42 µM; in the test with HCT-116 colon, 12.7 µM; in the test on K-562 leukemia, 9.08 µM; with HOP-92 NSCLC it was 2.79 µM; in the test on HCC-2998 colon, 3.31 µM; in the test on TK-10 renal, 16.8 µM. The TGI with HCT-15 colon turned out to be 5.8 µM; with COLO 205 colon, 4.65 µM; with OVCAR-8 ovarian, 27.9 µM; in the test with SNB-75 CNS, 0.887 µM.
As for `COc1ccc(NC(=O)C(=O)C(C(=O)c2ccccc2)C2OC(=O)c3ccccc32)c([N+](=O)[O-])c1` (stereo not given), the TGI in the test on UACC-257 melanoma, in the test with HCT-116 colon, with K-562 leukemia, with HOP-92 NSCLC, in the test on HCC-2998 colon and in the test with TK-10 renal was > 100 µM each time. Further, the TGI in the test with HCT-15 colon, in the test with COLO 205 colon, in the test on OVCAR-8 ovarian and with SNB-75 CNS was > 100 µM throughout.
Consider `CCCCCCCCC[C@@H]1CC(=O)OCC2OC(O[C@H](CCCCCCCCC)CC(=O)OCC3OC(O[C@H](CCCCCCCCC)CC(=O)OCC4OC(O1)C(O)C(O)C4O)C(O)C(O)C3O)C(O)C(O)C2O` (stereo not given in full), for which the TGI in the test on UACC-257 melanoma worked out at 24.2 µM; with HCT-116 colon it was 21.9 µM; in the test with K-562 leukemia, 15.1 µM; in the test with HOP-92 NSCLC, 22.6 µM; with HCC-2998 colon, 24.7 µM; in the test with TK-10 renal, 23.1 µM. The TGI in the test on HCT-15 colon was 21 µM; in the test on COLO 205 colon it was 8.3 µM; in the test on OVCAR-8 ovarian, 28.7 µM; in the test with SNB-75 CNS, 22.5 µM.
On to `CC(=O)Nc1ccc(C(=O)NN2C(=O)C(Cl)C2c2ccc(Cl)cc2)cc1` (stereo not given), for which the TGI in the test on UACC-257 melanoma is > 100 µM; in the test on HCT-116 colon it was > 100 µM; with K-562 leukemia, > 100 µM; with HOP-92 NSCLC it was 82.1 µM; with HCC-2998 colon it was > 100 µM; in the test with TK-10 renal it was > 100 µM. In addition, the TGI in the test on HCT-15 colon was > 100 µM; with COLO 205 colon, > 100 µM; with OVCAR-8 ovarian, > 100 µM; in the test on SNB-75 CNS, 30.9 µM.
Consider `CCNC(=O)CCN(C(=O)O)S(=O)(=O)c1ccc(NC(=O)c2ccccc2)cc1`, for which the TGI with UACC-257 melanoma, in the test on HCT-116 colon, in the test on K-562 leukemia, with HOP-92 NSCLC, in the test on HCC-2998 colon and with TK-10 renal was > 100 µM each time. Further, the TGI in the test on HCT-15 colon, with COLO 205 colon, in the test on OVCAR-8 ovarian and in the test on SNB-75 CNS was > 100 µM throughout.
Take `O=C(O[C@H]1CN[C@H](C#Cc2cc3ncnc(Nc4ccc5c(ccn5Cc5cc(F)ccc5F)c4)c3s2)C1)N1CCOCC1`: the GI50 in the test on UACC-257 melanoma is 4200 nM; in the test on HCT-116 colon it was 3190 nM; in the test on K-562 leukemia, 6.49 µM; in the test on HOP-92 NSCLC, 357 nM; in the test on HCC-2998 colon, 3.56 µM; with TK-10 renal, 72.4 nM. Moreover, the GI50 in the test with HCT-15 colon is 3.55 µM; with COLO 205 colon, 3.16 µM; in the test on OVCAR-8 ovarian it was 4.11 µM; with SNB-75 CNS it was 853 nM. Further, the TGI in the test with UACC-257 melanoma was 10.6 µM; with HCT-116 colon it was 7.44 µM; with K-562 leukemia it was > 25 µM; with HOP-92 NSCLC it was 3.9 µM; in the test with HCC-2998 colon, 7.35 µM; in the test with TK-10 renal, 1.93 µM. In addition, the TGI in the test with HCT-15 colon stood at 17.5 µM; with COLO 205 colon, 6.86 µM; in the test with OVCAR-8 ovarian, 15.4 µM; in the test with SNB-75 CNS, 6.21 µM.
`Cn1ccnc1CC(C)(O)c1ccccc1` (stereo not given): the TGI with UACC-257 melanoma, in the test on HCT-116 colon, with K-562 leukemia, with HOP-92 NSCLC, in the test on HCC-2998 colon and in the test on TK-10 renal was > 100 µM in each case. In addition, the TGI in the test with HCT-15 colon, with COLO 205 colon, in the test with OVCAR-8 ovarian and in the test on SNB-75 CNS was > 100 µM throughout.
Regarding `O=[N+]([O-])c1cccc(/C=N\NS(=O)(=O)c2ccc(Cl)cc2)c1O`, the TGI in the test on UACC-257 melanoma, with HCT-116 colon, in the test on K-562 leukemia, with HOP-92 NSCLC, in the test on HCC-2998 colon and with TK-10 renal was > 100 µM each time. The TGI in the test on HCT-15 colon, with COLO 205 colon, in the test with OVCAR-8 ovarian and in the test on SNB-75 CNS was > 100 µM each time.
Consider `COc1cc(Nc2nccc(Nc3ccc4c(C)[nH]nc4c3)n2)cc(OC)c1OC`, for which the GI50 is 1220 nM with UACC-257 melanoma; 2260 nM with HCT-116 colon; 1.4 µM in the test on K-562 leukemia; 191 nM in the test on HOP-92 NSCLC; 3.17 µM with HCC-2998 colon; 908 nM in the test with TK-10 renal. Moreover, the GI50 in the test with HCT-15 colon is 2.84 µM; with COLO 205 colon, 2.02 µM; in the test on OVCAR-8 ovarian, 3.39 µM; in the test on SNB-75 CNS, 486 nM. In addition, the TGI was 5.96 µM in the test on UACC-257 melanoma; 6.42 µM with HCT-116 colon; > 25 µM in the test on K-562 leukemia; 1.38 µM in the test with HOP-92 NSCLC; 8.46 µM with HCC-2998 colon; 3.88 µM with TK-10 renal. Besides, the TGI was > 25 µM in the test with HCT-15 colon, 5.65 µM in the test on COLO 205 colon, 10.2 µM in the test with OVCAR-8 ovarian and 3.22 µM with SNB-75 CNS.
For the compound `Nc1ccc(N(S(=O)(=O)c2ccccc2)S(=O)(=O)c2ccccc2)c(Cl)c1`, the TGI in the test on UACC-257 melanoma is > 100 µM; in the test on HCT-116 colon, > 100 µM; in the test with K-562 leukemia it was > 100 µM; with HOP-92 NSCLC, > 100 µM; in the test with HCC-2998 colon, 64.2 µM; in the test with TK-10 renal, > 100 µM. Further, the TGI with HCT-15 colon, with COLO 205 colon, in the test with OVCAR-8 ovarian and with SNB-75 CNS was > 100 µM each time.
In the case of `COc1ccc(CN(C)c2ccc(CO)c(Cl)c2)cc1`, the GI50 in the test with UACC-257 melanoma was 318 nM; in the test on HCT-116 colon it was 368 nM; in the test on K-562 leukemia, 7.59 µM; in the test with HOP-92 NSCLC it was 4700 nM; in the test on HCC-2998 colon, 13.7 µM; with TK-10 renal, 179 nM. Also, the GI50 with HCT-15 colon was 21 µM; in the test with COLO 205 colon it was 3.55 µM; with OVCAR-8 ovarian, 19.6 µM; in the test with SNB-75 CNS, 23500 nM. Further, the TGI in the test on UACC-257 melanoma was 1.22 µM; with HCT-116 colon, 14.2 µM; with K-562 leukemia, > 100 µM; with HOP-92 NSCLC, 45.3 µM; in the test with HCC-2998 colon, 71.2 µM; with TK-10 renal, 0.793 µM. Moreover, the TGI is > 100 µM in the test on HCT-15 colon, 17.5 µM in the test on COLO 205 colon, > 100 µM in the test with OVCAR-8 ovarian and > 90.7 µM in the test on SNB-75 CNS.
